Data: the supplement of paper PMC10307832

Tests used:
Test in all cases: relative viability (nuclei count vs DMSO), 5 days (fraction); higher = more cells survive
Carfilzomib + Decitabine = compound: CC(C)C[C@H](NC(=O)[C@H](CCc1ccccc1)NC(=O)CN1CCOCC1)C(=O)N[C@@H](Cc1ccccc1)C(=O)N[C@@H](CC(C)C)C(=O)[C@@]1(C)CO1 [Carfilzomib] + Nc1ncn([C@H]2C[C@H](O)[C@@H](CO)O2)c(=O)n1 [Decitabine] (partner 2 µM)
Procedure, shortened: (§1)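 Five library-drug doses in √10 steps were combined with a fixed anchor-drug dose, or a single drug was given alone, by pin tool to lung cancer cell lines in 1536-well plates the day after seeding. Nuclei were stained and counted after 5 days. Relative viability is the nuclei count in treated wells over that in vehicle wells, taken as the median of duplicate plates.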

Crizotinib + Trametinib = compound: C[C@@H](Oc1cc(-c2cnn(C3CCNCC3)c2)cnc1N)c1c(Cl)ccc(F)c1Cl [Crizotinib] + CC(=O)Nc1cccc(-n2c(=O)n(C3CC3)c(=O)c3c(Nc4ccc(I)cc4F)n(C)c(=O)c(C)c32)c1 [Trametinib] (partner 0.02 µM)
Procedure, shortened: as §1

Crizotinib + Palbociclib = compound: C[C@@H](Oc1cc(-c2cnn(C3CCNCC3)c2)cnc1N)c1c(Cl)ccc(F)c1Cl [Crizotinib] + CC(=O)c1c(C)c2cnc(Nc3ccc(N4CCNCC4)cn3)nc2n(C2CCCC2)c1=O [Palbociclib] (partner 0.5 µM)
Procedure, shortened: as §1

Olaparib + Trametinib = compound: O=C(c1cc(Cc2n[nH]c(=O)c3ccccc23)ccc1F)N1CCN(C(=O)C2CC2)CC1 [Olaparib] + CC(=O)Nc1cccc(-n2c(=O)n(C3CC3)c(=O)c3c(Nc4ccc(I)cc4F)n(C)c(=O)c(C)c32)c1 [Trametinib] (partner 0.02 µM)
Procedure, shortened: as §1

Cell Line	relative viability (Carfilzomib + Decitabine; first compound 0.001 µM)	relative viability (Carfilzomib + Decitabine; first compound 0.003162 µM)	relative viability (Carfilzomib + Decitabine; first compound 0.01 µM)	relative viability (Carfilzomib + Decitabine; first compound 0.03162 µM)	relative viability (Carfilzomib + Decitabine; first compound 0.1 µM)	relative viability (Crizotinib + Trametinib; first compound 0.01 µM)	relative viability (Crizotinib + Trametinib; first compound 0.03162 µM)	relative viability (Crizotinib + Trametinib; first compound 0.1 µM)	relative viability (Crizotinib + Trametinib; first compound 0.3162 µM)	relative viability (Crizotinib + Trametinib; first compound 1 µM)	relative viability (Crizotinib + Palbociclib; first compound 0.01 µM)	relative viability (Crizotinib + Palbociclib; first compound 0.03162 µM)	relative viability (Crizotinib + Palbociclib; first compound 0.1 µM)	relative viability (Crizotinib + Palbociclib; first compound 0.3162 µM)	relative viability (Crizotinib + Palbociclib; first compound 1 µM)	relative viability (Olaparib + Trametinib; first compound 0.08 µM)	relative viability (Olaparib + Trametinib; first compound 0.253 µM)	relative viability (Olaparib + Trametinib; first compound 2.53 µM)	relative viability (Olaparib + Trametinib; first compound 8 µM)
HOP-62	0.25	0.207	0.249	0.182	0.0817	0.353	0.369	0.358	0.407	0.392	0.444	0.416	0.412	0.396	0.495	0.358	0.359	0.393	0.333
LC-2-ad	0.878	0.811	0.75	0.861	0.557	0.899	0.985	–	–	0.892	0.525	0.504	0.53	–	0.472	0.877	0.819	0.894	0.809
LCLC-97TM1	0.234	0.283	0.226	0.115	0.0656	0.189	0.173	0.209	0.173	0.196	0.233	0.25	0.197	0.212	0.205	0.237	0.165	0.215	0.203
LCLC-103H	0.722	0.732	0.793	0.728	0.387	0.644	0.646	0.662	0.686	0.642	0.469	0.435	0.438	0.471	0.508	0.669	0.689	0.679	0.652
LK-2	0.276	0.369	0.193	0.119	0.108	0.858	0.749	0.674	0.805	0.728	0.65	0.691	0.596	0.609	0.534	0.887	0.701	0.888	0.788
LOU-NH91	0.823	0.864	0.852	0.413	0.389	0.773	0.79	0.833	0.763	0.794	0.583	0.534	0.516	0.533	0.5	0.862	0.782	0.793	0.825
LU99A	0.952	1.13	0.961	0.821	0.317	0.587	0.527	0.49	0.511	0.522	0.411	0.407	0.384	0.42	0.357	0.525	0.535	0.473	0.466
LXF-289	0.368	0.399	0.375	0.162	0.0931	0.666	0.668	0.726	0.57	0.693	0.583	0.591	0.626	0.569	0.582	0.737	0.674	0.771	0.847
NCI-H23	0.33	0.336	0.307	0.24	0.164	0.341	0.367	0.329	–	0.393	0.343	0.504	0.53	–	0.536	0.402	0.439	0.385	0.368
NCI-H322M	0.621	0.756	0.615	0.718	0.505	–	0.507	0.482	0.493	0.554	–	0.486	0.465	0.53	0.447	0.496	0.57	0.577	0.523
NCI-H358	0.208	0.24	0.181	0.0811	0.0784	0.108	0.151	0.131	0.112	0.135	0.127	0.14	0.184	0.127	0.126	0.13	0.147	0.145	0.12
NCI-H441	0.23	0.258	0.211	0.122	0.14	0.405	0.475	0.59	0.382	0.446	0.207	0.267	0.212	0.188	0.2	0.548	0.442	0.382	0.447
NCI-H460	0.453	0.514	0.394	0.414	0.0292	0.212	0.154	0.211	0.165	0.149	0.213	0.194	0.175	0.166	0.177	0.115	0.0823	0.121	0.0533
NCI-H520	0.494	0.5	0.398	0.16	0.173	0.603	0.744	0.767	0.568	0.668	0.24	0.24	0.205	0.204	0.195	0.794	0.527	0.506	0.311
NCI-H522	0.582	0.631	0.615	0.584	0.353	0.619	0.689	0.799	0.703	0.8	0.998	1.18	0.827	1.04	1.02	0.679	0.733	0.711	0.715
NCI-H596	0.904	0.999	1.03	1.16	0.308	0.834	0.845	0.82	0.888	0.819	–	–	–	–	–	0.789	0.719	0.82	0.637
NCI-H2228	–	–	–	–	–	0.415	0.492	0.648	0.3	0.521	0.714	0.608	0.691	0.432	0.367	0.609	0.344	0.495	0.521
